Measured values taken from US20120283096A1, “AGENT FOR IMPROVING PLANT GROWTH, SEEDS, AND METHOD FOR IMPROVING PLANT GROWTH” (Incorporated Administrative Agency National Agricu lture …, priority 2010, published 2012).

Assays:
decay of paddy seeds = experiment: Decay-inhibiting effect in tank farming without soil (Example 3); details: seeds covered with substance, soaked two weeks in water at 30° C.
Experimental: The decay-inhibiting effect of molybdenum-containing substances in tank farming without soil was examined.
The possibility of growth and the inhibition of decay were determined in the same manner as above.

barley [1] = experiment: Avoidance of wet damage to barley in a poorly-drained paddy field (Example 7, FIG. 21); assay type: in vivo
Text: To a poorly-drained paddy field in Chikugo City, Fukuoka Prefecture, 1.2 t/10 a of cow manure and ammonium sulfate in an equivalent amount of 6 kg/10 a in terms of nitrogen were applied. In November 2009, 9 kg/10 a of barley seed (branded as Nishinochikara) was planted. In February 2010, the paddy field was partitioned by corrugated plates into eight areas 50 cm×70 cm each. On Feb. 19, 2010 or Mar. 17, 2010, ammonium molybdophosphate was applied in equivalents amounts of 0, 0.03, 0.1, 0.3 mol/m^2 in terms of molybdenum. On May 11, 2010, the shoots of the barley in the areas partitioned from one another by the corrugated plates were harvested, and the dry weight was obtained.

soybean = experiment: Seedling establishment of soybean seeds with ammonium molybdophosphate (Example 5, FIG. 12); assay type: in vivo; details: 20° C. and 30° C., after two weeks
Experimental: (§1) As in Example 4-1, ammonium sulfate in an equivalent amount of 10 g/m^2 in terms of nitrogen and potassium chloride equivalent to 5 g/m^2 of potassium as potassium oxide were added as a solution to paddy humid soil, on the condition that the weight of dry soil is 100 kg/m^2. The soil was placed into each container (in the shape of a cylinder approximately 7 cm in diameter) in an amount equivalent to 100 g of dry soil, shaken for approximately one hour, and left at rest for two days at 4° C. It should be noted, however, that the soil-to-liquid ratio was 0.7. On this condition, the soil surface became substantially as high as the water surface. Barley seeds (branded as Nishinochikara) and soybean seeds (branded as Fukuyutaka) not subjected to treatment such as soaking in advance were soaked in water for one minute. Immediately after the extra water was removed, the seeds were put with a […] molybdenum amount of ammonium molybdophosphate (purchased from Wako Pure Chemical Industries, Ltd.) per gram of dry seed. The seeds were then half-buried in the samples of soil. […] Six containers were allotted for each condition, and the proportion of seedling establishment (proportion of individual plants that survived) was measured after two weeks.

[2] = Molybdenum concentration of aqueous solutions/supernatants measured by ICP-AES versus calculated values (FIGS. 5 and 6); assay type: physicochemical; details: water, FIG. 6
Experimental: Similarly, aqueous solutions of the slightly-soluble molybdenum-containing substances (as indicated by “Slightly-soluble” in the column “Water solubility” in Table 1) in varying concentrations were prepared. […] In particular, ammonium molybdophosphate (MoPNH), which is a salt of a heteroacid, stops dissolving at a molybdenum amount of approximately 0.2 mM or higher, and can therefore be kept at an especially low concentration.

barley [3] = experiment: Seedling establishment of barley seeds with ammonium molybdophosphate (Example 5, FIG. 12); assay type: in vivo; details: 20° C. and 30° C., after two weeks
Experimental: as §1

paddy rice = experiment: Seedling establishment of coated paddy seeds in submerged soil containers (Examples 4-1 to 4-4b, FIGS. 11, 14-19c); assay type: in vivo; details: germinated seeds, 30° C.
Experimental: The germinated paddy seeds were soaked for one minute in a tenfold diluted solution of a commercially available laundry starch (manufactured by Rocket Soap Co., Ltd.; My Laundry Starch) containing approximately a little less than 10% by weight of polyvinyl alcohol, centrifuged at 1000 rpm for removal of the extra solution, and, immediately after that, lightly covered with different amounts of ammonium molybdophosphate, whereby seeds with different amounts of ammonium molybdophosphate were prepared.
(§2) It should also be noted that in each of FIGS. 14 through 15b, the horizontal axis represents the number of moles (mmol) of molybdenum or tungsten that adhered per gram of dry seed. In each of FIGS. 14 through 15b, the dots correspond to the numbers of moles of 0, 0.02, 0.05, 0.1, 0.2, 0.5, 1, and 2 mmol, starting from the left.
as §2, with “should” for “should also”, “16” for “14”, “18,” for “15b,”, “molybdenum” for “molybdenum or tungsten”
It should be noted that in FIG. 19a, the horizontal axis represents the number of moles (mmol) of molybdenum that adhered per gram of dry seed. In FIG. 19a, the dots correspond to the numbers of moles of 0, 0.02, 0.05, 0.1, 0.2, 0.5, 1, and 2 mmol, starting from the left.
The resulting seeds were allowed to spend time in a sufficiently wet condition so that the iron rusted, and then allowed to further spend overnight. […] Six containers were allotted for each condition, and the proportion of seedling establishment and the standard error were examined. It should be noted that in FIG. 19b, the horizontal axis represents the number of moles (mmol) of molybdenum that adhered per gram of dry seed. In FIG. 19b, the dots correspond to the numbers of moles of 0, 0.02, 0.05, 0.1, 0.2, 0.5, 1, and 2 mmol, starting from the left.
Six containers were allotted for each condition, and the proportion of seedling establishment and the standard error were examined. It should be noted that in FIG. 19c, the horizontal axis represents the actual weight ratios of 25 wt % calcium peroxide that adhered with respect to the weight of dry seed. In FIG. 19c, the dots correspond to the actual weight ratios of 25 wt % calcium peroxide of 0, 0.01, 0.02, 0.05, 0.1, 0.2, 0.5, and 1 time, starting from the left.

Triammonium 12-moblydo(VI)phosphate trihydrate [Ammonium molybdophosphate]
Inhibition of decay, Amount of molybdenum or tungsten added to seed (decay of paddy seeds): <0.01 mmol/g | dry weight of the shoots at harvest time, trend with amount applied (barley [1]; 0.03 to 0.3 mol/m^2 in terms of molybdenum): increase in dry weight of the shoots | dry weight of the shoots at harvest time (barley [1]; approximately 0.3 mol/m^2 molybdenum applied in February): approximately 0.25 kg/m^2 | proportion of seedling establishment (soybean): improvements in proportion of seedling establishment | molybdenum amount at which the substance stops dissolving [2]: approximately 0.2 mM | proportion of seedling establishment (barley [3]): improvements in proportion of seedling establishment | molybdenum or tungsten amount leading to improvements in proportion of seedling establishment (paddy rice; polyvinyl alcohol adhesive, compared with 0 mmol/g): ≥ 0.02 mmol per gram of dry seeds | proportion of seedling establishment (paddy rice; molybdenum amount of 0.5 mmol/g or more, FIG. 11): ~80%
